System: SEM cells
Test: cell viability relative to DMSO control; higher = less cytotoxic
Conditions: 48 h
Outline: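 NOMO1 or SEM (500 cells/well) or P12-Ichikawa (1000 cells/well) leukemia cells were adapted for at least four passages in each medium. They were seeded in 1536-well plates (5 μl) and pin-dosed with library compounds in DMSO over an 11-point threefold series, 47 μM to 0.79 nM. CellTiter-Glo One luminescence was read after 48 h at 37°C. Viability is the per-plate percentage relative to DMSO wells, with cell-free wells as background.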

[1] = HPLM + 10% dialyzed FBS, 0.000781 µM
[2] = HPLM + 10% dialyzed FBS, 0.00234 µM
[3] = HPLM + 10% dialyzed FBS, 0.00702 µM
[4] = HPLM + 10% dialyzed FBS, 0.0211 µM
[5] = HPLM + 10% dialyzed FBS, 0.0632 µM
[6] = HPLM + 10% dialyzed FBS, 0.19 µM
[7] = HPLM + 10% dialyzed FBS, 0.569 µM
[8] = HPLM + 10% dialyzed FBS, 1.71 µM
[9] = HPLM + 10% dialyzed FBS, 5.12 µM
[10] = HPLM + 10% dialyzed FBS, 15.4 µM
[11] = HPLM + 10% dialyzed FBS, 46.1 µM
[12] = RPMI 5 mM glucose + 10% FBS, 0.000781 µM
[13] = RPMI 5 mM glucose + 10% FBS, 0.00234 µM
[14] = RPMI 5 mM glucose + 10% FBS, 0.00702 µM
[15] = RPMI 5 mM glucose + 10% FBS, 0.0211 µM
[16] = RPMI 5 mM glucose + 10% FBS, 0.0632 µM
[17] = RPMI 5 mM glucose + 10% FBS, 0.19 µM
[18] = RPMI 5 mM glucose + 10% FBS, 0.569 µM
[19] = RPMI 5 mM glucose + 10% FBS, 1.71 µM
[20] = RPMI 5 mM glucose + 10% FBS, 5.12 µM
[21] = RPMI 5 mM glucose + 10% FBS, 15.4 µM
[22] = RPMI 5 mM glucose + 10% FBS, 46.1 µM
[23] = RPMI 5 mM glucose + 10% dialyzed FBS, 0.000781 µM
[24] = RPMI 5 mM glucose + 10% dialyzed FBS, 0.00234 µM
[25] = RPMI 5 mM glucose + 10% dialyzed FBS, 0.00702 µM
[26] = RPMI 5 mM glucose + 10% dialyzed FBS, 0.0211 µM
[27] = RPMI 5 mM glucose + 10% dialyzed FBS, 0.0632 µM
[28] = RPMI 5 mM glucose + 10% dialyzed FBS, 0.19 µM
[29] = RPMI 5 mM glucose + 10% dialyzed FBS, 0.569 µM
[30] = RPMI 5 mM glucose + 10% dialyzed FBS, 1.71 µM
[31] = RPMI 5 mM glucose + 10% dialyzed FBS, 5.12 µM
[32] = RPMI 5 mM glucose + 10% dialyzed FBS, 15.4 µM
[33] = RPMI 5 mM glucose + 10% dialyzed FBS, 46.1 µM

SMILES | cell viability [1] | cell viability [2] | cell viability [3] | cell viability [4] | cell viability [5] | cell viability [6] | cell viability [7] | cell viability [8] | cell viability [9] | cell viability [10] | cell viability [11] | cell viability [12] | cell viability [13] | cell viability [14] | cell viability [15] | cell viability [16] | cell viability [17] | cell viability [18] | cell viability [19] | cell viability [20] | cell viability [21] | cell viability [22] | cell viability [23] | cell viability [24] | cell viability [25] | cell viability [26] | cell viability [27] | cell viability [28] | cell viability [29] | cell viability [30] | cell viability [31] | cell viability [32] | cell viability [33]
CC(C)CC(N(C)C)C1(c2ccc(Cl)cc2)CCC1 (stereo not drawn) | 114% | 119% | 117% | 133% | 124% | 117% | 126% | 110% | 90.4% | 54.3% | 59.1% | 111% | 127% | 118% | 116% | 121% | 128% | 121% | 105% | 75% | 40.2% | 46.7% |  |  |  |  |  |  |  |  |  |  | 
C=CC(=O)Nc1ccc2ncnc(Nc3ccc(OCc4cccc(F)c4)c(Cl)c3)c2c1 | 75.8% | 82.7% | 83.9% | 84.4% | 103% | 91.2% | 89.7% | 101% | 77.5% | 21.2% | 18.1% | 102% | 105% | 115% | 117% | 95.3% | 110% | 118% | 116% | 76.1% | 14.6% | 12.5% | 85.5% | 87.5% | 88.4% | 92.4% | 102% | 92.4% | 93% | 107% | 77% | 19.9% | 11.1%
COc1ccc2[nH]cc(CCNC(C)=O)c2c1 | 91% | 110% | 113% | 116% | 127% | 114% | 114% | 101% | 103% | 117% | 106% | 112% | 123% | 124% | 124% | 117% | 114% | 124% | 102% | 110% | 123% | 119% | 121% | 131% | 114% | 144% | 125% | 113% | 120% | 104% | 100% | 124% | 113%
Nc1nc(N)c(N=O)c(OCC2CCCCC2)n1 | 71.5% | 92.1% | 54.6% | 88.7% | 91.9% | 100% | 89.4% | 75.5% | 40.8% | 39% | 28.2% | 94.7% | 84.2% | 56.6% | 91.4% | 97.2% | 93.3% | 96.7% | 74% | 47.8% | 38.1% | 27.4% | 81.6% | 86.2% | 71.4% | 86.8% | 96% | 100% | 102% | 79% | 56.5% | 45.2% | 32%
C[C@H]1Oc2cc(cnc2N)-c2c(nn(C)c2C#N)CN(C)C(=O)c2ccc(F)cc21 | 111% | 138% | 114% | 118% | 109% | 126% | 124% | 121% | 117% | 107% | 93.7% | 110% | 108% | 110% | 109% | 78.1% | 85.3% | 102% | 110% | 97.4% | 81.5% | 60.3% | 118% | 128% | 115% | 130% | 131% | 133% | 145% | 132% | 129% | 122% | 116%
CCCCCCCCCCCC/1=C(O)/C(=O)/C=C(O)\C1=O | 98.9% | 111% | 126% | 132% | 128% | 138% | 118% | 144% | 130% | 127% | 130% |  |  |  |  |  |  |  |  |  |  |  | 107% | 120% | 126% | 132% | 131% | 138% | 134% | 140% | 137% | 146% | 129%
O=[S+]([O-])(NCCNC/C=C/c1ccc(Br)cc1)c1cccc2cnccc12 | 97.5% | 94.8% | 97.5% | 42.4% | 101% | 89.5% | 91.1% | 82.3% | 68.7% | 43.1% | 48.2% | 115% | 119% | 115% | 48.9% | 114% | 131% | 105% | 103% | 62.5% | 58.4% | 43.7% | 95.5% | 96.6% | 93.8% | 45.3% | 91.6% | 87.7% | 83.8% | 74.5% | 56.4% | 41.6% | 34.9%
CCOC(=O)[C@@H](N)CCC(=O)N[C@@H](CSCc1ccccc1)C(=O)N[C@@H](C(=O)OCC)c1ccccc1 | 84.5% | 105% | 99.8% | 103% | 104% | 111% | 109% | 116% | 119% | 97.1% | 102% |  |  |  |  |  |  |  |  |  |  |  |  |  |  |  |  |  |  |  |  |  | 
CC[C@H]1CN2CCc3cc(OC)c(OC)cc3[C@@H]2C[C@@H]1C[C@H]1NCCc2cc(OC)c(OC)cc21 | 40.6% | 88.1% | 71.5% | 73.9% | 89.7% | 38.6% | 11.8% | 10.1% | 7.04% | 7.04% | 6.06% | 46.7% | 94.3% | 67.6% | 79.9% | 90.9% | 61% | 14.7% | 11% | 8.47% | 9.05% | 7.9% | 35.8% | 99.2% | 74.9% | 96% | 113% | 67.8% | 22.2% | 13% | 9.62% | 9.49% | 8.97%
